Paper PMC10099595, “Multimodal 4-arylchromene derivatives with microtubule-destabilizing, anti-angiogenic, and MYB-inhibitory activities” (Cancer Drug Resistance, 2023)
Read-outs that look alike come from different tables or passages of the source.

What was measured:
[1] = tested on: EA.hy926 endothelial hybrid cells; assay: MTT antiproliferative assay, EA.hy926; format: cell-based; details: Homo sapiens, EA.hy 926, 72 h
From the text: (§1) The following cell lines were used: 518A2 melanoma (Department of Radiotherapy, Medical University of Vienna, Austria)[15], HeLa cervix carcinoma, KBV1^Vbl (ACC-149 cervix carcinoma, MCF7 [ACC-115]) breast carcinoma, U-87 glioblastoma, HT-29 (ACC-299), HCT-116 (ACC-581) and HCT-116p53-/- colon carcinoma, EA.hy926 (ATCC® CRL-2922^TM) endothelial hybrid cells, and HDFa (ATCC® PCS-201-012^TM) adult human dermal fibroblasts. […] Only mycoplasma-free cultures were used.

518A2 melanoma cells [2] = assay: MTT antiproliferative assay, 518A2; format: cell-based; details: Homo sapiens, 72 h
From the text: as §1

[3] = tested on: HCT-116 colon carcinoma cells; assay: MTT antiproliferative assay, HCT-116; format: cell-based; details: Homo sapiens, 72 h
From the text: as §1

[4] = tested on: HCT-116 p53-/- colon carcinoma cells; assay: MTT antiproliferative assay, HCT-116 p53-/-; format: cell-based; details: Homo sapiens, 72 h
From the text: as §1

U-87 glioblastoma cells = assay: MTT antiproliferative assay, U87; format: cell-based; details: Homo sapiens, 72 h
From the text: as §1

[5] = tested on: HT-29 colon carcinoma cells; assay: MTT antiproliferative assay, HT-29; format: cell-based; details: Homo sapiens, 72 h
From the text: as §1

[6] = tested on: KB-V1^Vbl cervix carcinoma cells; assay: MTT antiproliferative assay, KB-V1Vbl (with or without verapamil); format: cell-based, human; details: Homo sapiens, KB-V1/Vbl, 72 h, read-out: IC50 KB-V1^Vbl
From the text: as §1

[7] = tested on: HeLa cervix carcinoma cells; assay: MTT antiproliferative assay, HeLa; format: cell-based; details: Homo sapiens, 72 h
From the text: as §1

[8] = tested on: MCF-7 breast carcinoma cells; assay: MTT antiproliferative assay, MCF-7; format: cell-based; details: Homo sapiens, MCF7, 72 h
From the text: as §1

[9] = tested on: tested cancer and hybrid cell lines; assay: MTT assay, average over all tested cancer and hybrid cell lines; details: Homo sapiens
Method: An 3-(4, 5-dimethylthiazol-2-yl)-2, 5-diphenyl tetrazolium bromid (MTT) assay was used for antiproliferative studies. Cancer cells (5 × 10^4 cells/mL, 100 μL/well) were placed in 96-well plates (10 × 10^4 cells/mL for HDFA and U87 cells), and the cells were incubated for 24 h at 5% CO2 and 95% humidity. Then, cells were treated with test compounds (at various concentrations) or solely with DMSO as a negative control for 72 h. Then, 12.5 μL of a 0.5% MTT solution in phosphate-buffered saline (PBS) was added to the cells, followed by incubation for 2 h at 37 °C. After centrifugation of the plates (300 × g, 5 min, 4 °C), the medium was discarded, and 25 μL of DMSO containing 10% SDS and 0.6% acetic acid was added, followed by incubation at 37 °C for at least 1 h. Formazan absorbance at λ = 570 nm was measured using a Tecan infinite F200 microplate reader and corrected for the background (λ = 630 nm). The 50% inhibitory concentration (IC50) values were calculated from dose-response curves (means ± SD, four independent experiments) compared to DMSO-treated control cells, which were set to 100%. GraphPad Prism 9 was used for curve-fitting.
The selectivity index (SI) was calculated as a measure of selectivity toward cancer cells compared to non-malignant cells.

518A2 melanoma cells [10] = assay: Cell-cycle analysis (FACS, propidium iodide); format: cell-based, human; details: 518A2 cells, 25 nM, 24 h
Method: 518A2 melanoma cells (10 × 10^4 cells/mL, 3 mL/well) were cultivated in six-well plates for 24 h. After the treatment with test compounds (10 and 25 nm), C-A4 (10 and 25 nm), or DMSO (vehicle) for an additional 24 h, the cells were trypsinized, centrifuged (300 × g, 5 min, 4 °C), and fixed in 70% EtOH for min. 24 h. For FACS measurement, cells were washed in PBS and stained with propidium iodide solution (50 µg/mL PI, 50 µg/mL RNase A in 0.1% sodium citrate) for 30 min at 37 °C. The DNA content of at least 10000 single cells was determined using a Beckmann Coulter Cytomics FC500 flow cytometer (λex = 488 nm, λem = 570 nm). CXP software (Beckman Coulter) was used to analyze the cells in the cell cycle phases (sub-G1, G1, S, G2/M).

[11] = tested on: microtubule cytoskeleton of 518A2 melanoma cells; assay: Microtubule immunofluorescence staining; format: cell-based, human; details: 518A2 cells, 100 nM
Method: The cells were treated with test compounds and controls (25 and 100 nm) for 0.5, 1, 3, and 6 h and washed with cytoskeletal buffer (100 nm PIPES, 3 nm MgCl2, 138 nm KCl, 2 nm EGTA, 300 nm sucrose, pH 6.8). Fixation and permeabilization were performed for 5 min with 3.7% formaldehyde and 0.2% Triton X-100 in a cytoskeletal buffer. The cells were fixed with cold EtOH for 10 s, rehydrated in PBS, and blocked with 1% bovine serum albumin in PBS for 30 min. The microtubules were stained for 1 h with primary (anti-α-tubulin, mouse monoclonal antibody) and secondary antibodies (goat anti-mouse IgG-AF-546, Invitrogen) and washed with PBS between each treatment. Nuclei were stained using DAPI (1 µg/mL in PBS) for 30 min. The coverslips were placed in Roti®-Mount FluorCare. Microtubules (λex = 488 nm, λem = 507 nm) and nuclei (λex = 358 nm, λem = 461 nm) were documented by confocal microscopy (Leica TCS SP5 confocal microscope, 630 × magnification) and edited with ImageJ.

[12] = tested on: SW620/Ad300 colorectal cancer cells; design: method as in PMID 9187269, PMID 34977876; details: MDR SW620/Ad300 cells; cited from earlier work

SMILES | IC50 [1] | IC50 (518A2 melanoma cells [2]) | IC50 [3] | IC50 [4] | IC50 (U-87 glioblastoma cells) | IC50 [5] | IC50 [7] | IC50 [8] | melting point | reduction of effective concentration by treatment with P-gp modulators [12] | other results
COc1ccc2c(c1)OC(N)=C(C#N)C2c1ccccc1Cl (centres unmarked) [2H, 2-Amino-3-cyano-4-(2’-chlorophenyl)-7-methoxy-4H-chromene] | 3700 ± 300 nM | 2000 ± 100 nM | 3700 ± 400 nM | 2800 ± 300 nM | 7400 ± 200 nM | 5300 ± 970 nM | 1400 ± 100 nM | 5100 ± 370 nM | 184 °C |  | IC50 ([6]; MTT, without verapamil): 1900 ± 200 nM; IC50 ([9]; read-out: Average IC50 value of the tested cancer and hybrid cell lines (Ø IC50), average of all cell lines of Table 2): > 500 nM
COc1ccc(/C=C\c2cc(OC)c(OC)c(OC)c2)cc1O [C-A4, combretastatin A4, reference compound] |  |  |  |  |  |  |  |  |  |  | G2/M cell-cycle arrest (in words) (518A2 melanoma cells [10]): significant G2/M cell-cycle arrest; time to change of the microtubule structure [11]: 30 min
C#CCOc1ccc2c(c1)OC(N)=C(C#N)C2c1cc(Br)c(OC)c(OC)c1 (centres unmarked) [compound 3, 2-Amino-3-cyano-4-(3’-bromo-4’, 5’-dimethoxyphenyl)-7-propargyloxy-4H-chromene] | 80 ± 2 nM | 60 ± 3 nM | 300 ± 10 nM | 90 ± 7 nM | 90 ± 3 nM | 2100 ± 300 nM | 40 ± 2 nM | 70 ± 4 nM | 206 to 207 °C |  | IC50 [6]: 80 ± 3 nM; IC50 ([9]; read-out: Average IC50 value of the tested cancer and hybrid cell lines (Ø IC50)): 321 nM
CC(=O)O[C@H]1C(=O)[C@@]2(C)[C@H]([C@H](OC(=O)c3ccccc3)[C@]3(O)C[C@H](OC(=O)[C@H](O)[C@@H](NC(=O)c4ccccc4)c4ccccc4)C(C)=C1C3(C)C)[C@]1(OC(C)=O)CO[C@@H]1C[C@@H]2O [paclitaxel] |  |  |  |  |  |  |  |  |  | 100 fold | 
CC[C@]1(O)C[C@@H]2CN(CCc3c([nH]c4ccccc34)[C@@](C(=O)OC)(c3cc4c(cc3OC)N(C)[C@H]3[C@@](O)(C(=O)OC)[C@H](OC(C)=O)[C@]5(CC)C=CCN6CC[C@]43[C@@H]65)C2)C1 [vinblastine] |  |  |  |  |  |  |  |  |  | 351 fold | 
